For five molecules, EC50 results are on record in patent US9409966B2, “Glucagon-like peptide-1 derivatives and their pharmaceutical use” (priority 2007, dated 2016).

pEC50: −log10 of the molar value.

One experiment has as its target T1, human GLP-1 receptor (Homo sapiens, UniProt P43220).
T1 construct: expressed in transfected cells; host or cells: BHK467-12A (tk-ts13) baby hamster kidney cells; purified plasma membranes
The experiment can be described thus: Stimulation of cAMP formation in a cell line expressing the cloned human GLP-1 receptor. As to conditions: cAMP production, purified plasma membranes from BHK467-12A (tk-ts13), AlphaScreen cAMP Assay Kit; read-out: Potency [EC50/nM]. Type of experiment: biochemical.

The target of experiment [1] is human serum albumin (HSA) (Homo sapiens, UniProt P02768). The experiment can be described thus: Albumin binding affinity, competition scintillation proximity assay (SPA).
Chain of human serum albumin (HSA) (P02768 25-609): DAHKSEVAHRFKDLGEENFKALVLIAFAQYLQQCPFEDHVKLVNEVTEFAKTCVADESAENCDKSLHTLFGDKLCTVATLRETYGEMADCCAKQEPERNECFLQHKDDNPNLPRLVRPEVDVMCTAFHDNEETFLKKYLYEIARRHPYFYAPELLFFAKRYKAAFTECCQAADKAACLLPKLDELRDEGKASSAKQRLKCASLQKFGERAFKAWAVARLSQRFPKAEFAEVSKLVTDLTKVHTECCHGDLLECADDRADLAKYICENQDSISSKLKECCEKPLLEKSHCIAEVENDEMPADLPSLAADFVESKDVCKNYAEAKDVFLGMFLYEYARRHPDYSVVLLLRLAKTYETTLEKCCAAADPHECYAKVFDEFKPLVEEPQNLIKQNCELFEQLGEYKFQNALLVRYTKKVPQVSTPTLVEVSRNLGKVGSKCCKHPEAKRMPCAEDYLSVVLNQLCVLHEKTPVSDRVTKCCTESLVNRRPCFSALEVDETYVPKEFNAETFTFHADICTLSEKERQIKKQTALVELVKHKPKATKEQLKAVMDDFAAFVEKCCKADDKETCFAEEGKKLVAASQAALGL
Method: Streptavidin-SPA beads (GE Healthcare RPNQ0009) were incubated with biotinylated HSA for 5 hours. The beads were washed with buffer to remove unbound HSA. […] After 20 hours of gentle rocking at room temperature the plates were centrifuged and counted on a TopCounter.

T1 sequence (P43220 24-463): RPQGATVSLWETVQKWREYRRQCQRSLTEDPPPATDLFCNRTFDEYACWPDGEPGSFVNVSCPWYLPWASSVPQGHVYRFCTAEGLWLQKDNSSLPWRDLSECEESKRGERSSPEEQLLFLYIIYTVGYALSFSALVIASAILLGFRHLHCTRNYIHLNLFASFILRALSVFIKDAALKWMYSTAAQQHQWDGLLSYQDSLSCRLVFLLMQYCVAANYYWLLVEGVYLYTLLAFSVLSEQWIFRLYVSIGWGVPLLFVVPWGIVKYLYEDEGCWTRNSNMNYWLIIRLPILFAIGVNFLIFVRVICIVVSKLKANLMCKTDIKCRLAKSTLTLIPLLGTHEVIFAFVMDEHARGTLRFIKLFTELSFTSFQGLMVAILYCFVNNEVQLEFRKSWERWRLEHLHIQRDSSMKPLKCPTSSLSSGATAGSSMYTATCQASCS

In the case of `CC[C@H](C)[C@H](NC(=O)[C@H](Cc1ccccc1)NC(=O)[C@H](CCC(=O)O)NC(=O)[C@H](CCCNC(=N)N)NC(=O)[C@H](C)NC(=O)[C@H](C)NC(=O)[C@H](CCC(N)=O)NC(=O)[C@H](CCC(=O)O)NC(=O)[C@H](CCC(=O)O)NC(=O)[C@H](CC(C)C)NC(=O)[C@H](Cc1ccc(O)cc1)NC(=O)[C@H](CO)NC(=O)[C@H](CO)NC(=O)[C@@H](NC(=O)[C@H](CC(=O)O)NC(=O)[C@H](CO)NC(=O)[C@@H](NC(=O)[C@H](Cc1ccccc1)NC(=O)[C@@H](NC(=O)CNC(=O)[C@H](CCC(=O)O)NC(=O)[C@H](C)NC(=O)CCc1c[nH]cn1)[C@@H](C)O)[C@@H](C)O)C(C)C)C(=O)N[C@@H](C)C(=O)N[C@@H](Cc1c[nH]c2ccccc12)C(=O)N[C@@H](CC(C)C)C(=O)N[C@H](C(=O)N[C@@H](CCCNC(=N)N)C(=O)NCC(=O)N[C@@H](CCCNC(=N)N)C(=O)N[C@@H](CCCCNC(=O)COCCOCCNC(=O)COCCOCCNC(=O)C[C@@H](NC(=O)C1CCN(C(=O)CCCCCCCCCCCCCCCCCCC(=O)O)CC1)C(=O)O)C(N)=O)C(C)C` [Example 1, N-epsilon37{2-[2-(2-{2-[2-((R)-3-carboxy-3-{[1-(19-carboxynonadecanoyl)piperidine-4-carbonyl]amino}propionylamino)ethoxy]ethoxy}acetylamino)ethoxy]ethoxy}acetyl [desaminoHis7,Glu22,Arg26,Arg34,Lys37]GLP-1(7-37)amide], the EC50 at human GLP-1 receptor is 0.37 nM. The same molecule gave a pEC50 in experiment [1] of 6.10 to 6.40. Regarding `CC[C@H](C)[C@H](NC(=O)[C@H](Cc1ccccc1)NC(=O)[C@H](CCC(=O)O)NC(=O)[C@H](CCCNC(=N)N)NC(=O)[C@H](C)NC(=O)[C@H](C)NC(=O)[C@H](CCC(N)=O)NC(=O)[C@H](CCC(=O)O)NC(=O)[C@H](CCC(=O)O)NC(=O)[C@H](CC(C)C)NC(=O)[C@H](Cc1ccc(O)cc1)NC(=O)[C@H](CO)NC(=O)[C@H](CO)NC(=O)[C@@H](NC(=O)[C@H](CC(=O)O)NC(=O)[C@H](CO)NC(=O)[C@@H](NC(=O)[C@H](Cc1ccccc1)NC(=O)[C@@H](NC(=O)CNC(=O)[C@H](CCC(=O)O)NC(=O)C(C)(C)NC(=O)[C@@H](N)Cc1c[nH]cn1)[C@@H](C)O)[C@@H](C)O)C(C)C)C(=O)N[C@@H](C)C(=O)N[C@@H](Cc1c[nH]c2ccccc12)C(=O)N[C@@H](CC(C)C)C(=O)N[C@H](C(=O)N[C@@H](CCCNC(=N)N)C(=O)NCC(=O)N[C@@H](CCCNC(=N)N)C(=O)N[C@@H](CCCCNC(=O)COCCOCCNC(=O)COCCOCCNC(=O)C[C@H](NC(=O)C1CCN(C(=O)CCCCCCCCCCCCCCCCCCC(=O)O)CC1)C(=O)O)C(N)=O)C(C)C` [Example 2, N-epsilon37{2-[2-(2-{2-[2-((S)-3-carboxy-3-{[1-(19-carboxynonadecanoyl)piperidine-4-carbonyl]amino}propionylamino)ethoxy]ethoxy}acetylamino)ethoxy]ethoxy}acetyl [Aib8,Glu22,Arg26,Arg34,Lys37]GLP-1-(7-37)amide], the EC50 on human GLP-1 receptor was 0.2 nM. The molecule also gave a pEC50 in experiment [1] of 6.40 to 6.70. On to `CCCCCCCCCCCCCCCCCC(=O)NCCOCCOCC(=O)NCCOCCOCC(=O)NCCOCCOCC(=O)NCCCC[C@H](NC(=O)[C@H](CCCNC(=N)N)NC(=O)CNC(=O)[C@H](CCCNC(=N)N)NC(=O)[C@@H](NC(=O)[C@H](CC(C)C)NC(=O)[C@H](Cc1c[nH]c2ccccc12)NC(=O)[C@H](C)NC(=O)[C@@H](NC(=O)[C@H](Cc1ccccc1)NC(=O)[C@H](CCC(=O)O)NC(=O)[C@H](CCCNC(=N)N)NC(=O)[C@H](C)NC(=O)[C@H](C)NC(=O)[C@H](CCC(N)=O)NC(=O)[C@H](CCC(=O)O)NC(=O)[C@H](CCC(=O)O)NC(=O)[C@H](CC(C)C)NC(=O)[C@H](Cc1ccc(O)cc1)NC(=O)[C@H](CO)NC(=O)[C@H](CO)NC(=O)[C@@H](NC(=O)[C@H](CC(=O)O)NC(=O)[C@H](CO)NC(=O)[C@@H](NC(=O)[C@H](Cc1ccccc1)NC(=O)[C@@H](NC(=O)CNC(=O)[C@H](CCC(=O)O)NC(=O)[C@H](C)NC(=O)CCc1c[nH]cn1)[C@@H](C)O)[C@@H](C)O)C(C)C)[C@@H](C)CC)C(C)C)C(N)=O` [Example 19, N-epsilon37-(2-(2-(2-(2-(2-(2-(2-(2-(2-(Octadecanoylamino)ethoxy)ethoxy)acetylamino)ethoxy)ethoxy)acetylamino)ethoxy)ethoxy)acetyl)[desaminoHis7,Glu22,Arg26,Arg34,Lys37] GLP-1 (7-37)amide], for which the EC50 on human GLP-1 receptor is 0.05 nM.

`CC[C@H](C)[C@H](NC(=O)[C@H](Cc1ccccc1)NC(=O)[C@H](CCC(=O)O)NC(=O)[C@H](CCCNC(=N)N)NC(=O)[C@H](C)NC(=O)[C@H](C)NC(=O)[C@H](CCC(N)=O)NC(=O)[C@H](CCC(=O)O)NC(=O)[C@H](CCC(=O)O)NC(=O)[C@H](CC(C)C)NC(=O)[C@H](Cc1ccc(O)cc1)NC(=O)[C@H](CO)NC(=O)[C@H](CO)NC(=O)[C@@H](NC(=O)[C@H](CC(=O)O)NC(=O)[C@H](CO)NC(=O)[C@@H](NC(=O)[C@H](Cc1ccccc1)NC(=O)[C@@H](NC(=O)CNC(=O)[C@H](CCC(=O)O)NC(=O)[C@H](C)NC(=O)CCc1c[nH]cn1)[C@@H](C)O)[C@@H](C)O)C(C)C)C(=O)N[C@@H](C)C(=O)N[C@@H](Cc1c[nH]c2ccccc12)C(=O)N[C@@H](CC(C)C)C(=O)N[C@H](C(=O)N[C@@H](CCCNC(=N)N)C(=O)NCC(=O)N[C@@H](CCCNC(=N)N)C(=O)N[C@@H](CCCCNC(=O)COCCOCCNC(=O)CC[C@H](NC(=O)CC[C@H](NC(=O)CCCCCCCCCCCNC(=O)CCCS(=O)(=O)NC(=O)CCCCCCCCCCCCCCCc1nnn(C(C)(C)C)n1)C(=O)O)C(=O)O)C(=O)O)C(C)C` [Example 26, N-epsilon37-{2-[2-(2-{(S)-4-[(S)-4-(12-{4-[16-(2-tert-Butyl-2H-tetrazol-5-yl)-hexadecanoylsulfamoyl]butyrylamino}dodecanoylamino)-4-carboxybutyrylamino]-4-carboxybutyrylamino}ethoxy)ethoxy]acetyl}[DesaminoHis7,Glu22,Arg26,Arg34,Lys37] GLP-1 (7-37)]: the EC50 at human GLP-1 receptor came out at 0.25 nM. Turning to `CC[C@H](C)[C@H](NC(=O)[C@H](Cc1ccccc1)NC(=O)[C@H](CCC(=O)O)NC(=O)[C@H](CCCNC(=N)N)NC(=O)[C@H](C)NC(=O)[C@H](C)NC(=O)[C@H](CCC(N)=O)NC(=O)[C@H](CCC(=O)O)NC(=O)[C@H](CCC(=O)O)NC(=O)[C@H](CC(C)C)NC(=O)[C@H](Cc1ccc(O)cc1)NC(=O)[C@H](CO)NC(=O)[C@H](CO)NC(=O)[C@@H](NC(=O)[C@H](CC(=O)O)NC(=O)[C@H](CO)NC(=O)[C@@H](NC(=O)[C@H](Cc1ccccc1)NC(=O)[C@@H](NC(=O)CNC(=O)[C@H](CCC(=O)O)NC(=O)C(C)(C)NC(=O)[C@@H](N)Cc1c[nH]cn1)[C@@H](C)O)[C@@H](C)O)C(C)C)C(=O)N[C@@H](C)C(=O)N[C@@H](Cc1c[nH]c2ccccc12)C(=O)N[C@@H](CC(C)C)C(=O)N[C@H](C(=O)N[C@@H](CCCNC(=N)N)C(=O)NCC(=O)N[C@@H](CCCNC(=N)N)C(=O)N[C@@H](CCCCNC(=O)CC[C@H](NC(=O)COCCOCCNC(=O)COCCOCCNC(=O)CCCCCCCCCCCCCCCCC(=O)O)C(=O)O)C(=O)O)C(C)C` [Example 38, N-epsilon-37-[(S)-4-carboxy-4-(2-{2-[2-(2-{2-[2-(17-carboxyheptadecanoylamino)ethoxy]ethoxy}acetylamino)ethoxy]ethoxy}acetylamino)butyryl] [Aib8,Glu22,Arg26,34,Lys37] GLP-1 (7-37)], on human GLP-1 receptor, the EC50 was determined as 0.07 nM.
